The values that follow come from US20160297830A1, “NOVEL COMPOUNDS USEFUL FOR THE TREATMENT OF BACTERIAL INFECTIOUS DISEASES” (GALAPAGOS NV, priority 2013, published 2016).

As usually defined, the pIC50 is the negative decadic logarithm of the IC50, by convention in mol/L.

In assay [1] the test system is H. influenza Hi10 clinical strain. Description: organism not typed. Format: cell-based. Conditions: read-out: MIC Hi10.
Assay [2] has as its system H. influenza Hi106 ATCC 51907. Nature of the assay: organism not typed. Format: cell-based. Conditions: read-out: MIC Hi106.
Another assay concerns E. coli Ec1 ATCC 25922. Description: Antibacterial activity assay (MIC), E. coli Ec1. Format: cell-based. Particulars: Escherichia coli.
Assay [3] concerns Methicillin Resistant S. aureus Sa2 (MRSA). Nature of the assay: animal or person. Format: in vivo.
For assay [4], the target named is DNA Polymerase IIIα (DnaE) from Staphylococcus aureus (Staphylococcus aureus, UniProt Q6GG04). Description: biochemical.
Chain of DNA Polymerase IIIα (DnaE) from Staphylococcus aureus (Q6GG04 1-1022): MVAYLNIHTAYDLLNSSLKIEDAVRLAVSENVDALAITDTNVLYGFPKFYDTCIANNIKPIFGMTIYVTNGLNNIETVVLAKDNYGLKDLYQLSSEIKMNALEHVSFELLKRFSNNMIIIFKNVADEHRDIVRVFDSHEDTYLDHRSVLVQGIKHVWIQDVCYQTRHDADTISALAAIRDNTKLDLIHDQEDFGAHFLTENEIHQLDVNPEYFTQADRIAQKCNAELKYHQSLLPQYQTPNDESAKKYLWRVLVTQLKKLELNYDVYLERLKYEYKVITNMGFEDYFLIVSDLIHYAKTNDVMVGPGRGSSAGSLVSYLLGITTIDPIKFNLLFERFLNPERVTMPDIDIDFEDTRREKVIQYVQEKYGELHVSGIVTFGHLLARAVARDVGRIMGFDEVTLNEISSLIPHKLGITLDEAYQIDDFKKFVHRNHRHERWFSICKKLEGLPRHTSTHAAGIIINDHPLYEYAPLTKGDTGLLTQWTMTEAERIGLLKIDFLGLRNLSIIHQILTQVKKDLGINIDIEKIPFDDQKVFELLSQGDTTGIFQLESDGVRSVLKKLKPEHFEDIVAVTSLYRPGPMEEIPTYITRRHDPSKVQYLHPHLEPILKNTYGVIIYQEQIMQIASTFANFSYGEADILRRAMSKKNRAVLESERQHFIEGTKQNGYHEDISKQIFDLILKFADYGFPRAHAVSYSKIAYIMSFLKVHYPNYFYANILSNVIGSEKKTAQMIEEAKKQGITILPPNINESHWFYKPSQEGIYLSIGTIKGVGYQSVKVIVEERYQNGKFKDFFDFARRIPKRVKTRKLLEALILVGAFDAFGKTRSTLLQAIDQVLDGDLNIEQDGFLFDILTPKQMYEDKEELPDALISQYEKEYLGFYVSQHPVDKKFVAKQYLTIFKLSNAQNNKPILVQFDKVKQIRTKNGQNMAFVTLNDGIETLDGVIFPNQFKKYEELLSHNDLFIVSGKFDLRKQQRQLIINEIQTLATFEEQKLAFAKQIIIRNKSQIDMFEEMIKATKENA
A further assay deals with DNA III Polymerase E (Escherichia coli, UniProt P10443). Nature of the assay: In vitro activity against DNA III Polymerase E, E. coli. Format: biochemical. An outline of the steps: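 Recombinant enzyme (0.47 μg/mL diluted stock) in 20 mM Tris pH7.5, 8 mM DTT, 10 mM MgOAc, 0.05% CHAPS met compound series from 100 μM top, 1/5 steps. Activated calf thymus DNA, dNTPs and [α-33P]-dTTP substrate were added, and incubation ran 120 min at 30° C. IC50 came from filter-captured incorporated radioactivity versus controls.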
Chain of DNA III Polymerase E (P10443 whole entry): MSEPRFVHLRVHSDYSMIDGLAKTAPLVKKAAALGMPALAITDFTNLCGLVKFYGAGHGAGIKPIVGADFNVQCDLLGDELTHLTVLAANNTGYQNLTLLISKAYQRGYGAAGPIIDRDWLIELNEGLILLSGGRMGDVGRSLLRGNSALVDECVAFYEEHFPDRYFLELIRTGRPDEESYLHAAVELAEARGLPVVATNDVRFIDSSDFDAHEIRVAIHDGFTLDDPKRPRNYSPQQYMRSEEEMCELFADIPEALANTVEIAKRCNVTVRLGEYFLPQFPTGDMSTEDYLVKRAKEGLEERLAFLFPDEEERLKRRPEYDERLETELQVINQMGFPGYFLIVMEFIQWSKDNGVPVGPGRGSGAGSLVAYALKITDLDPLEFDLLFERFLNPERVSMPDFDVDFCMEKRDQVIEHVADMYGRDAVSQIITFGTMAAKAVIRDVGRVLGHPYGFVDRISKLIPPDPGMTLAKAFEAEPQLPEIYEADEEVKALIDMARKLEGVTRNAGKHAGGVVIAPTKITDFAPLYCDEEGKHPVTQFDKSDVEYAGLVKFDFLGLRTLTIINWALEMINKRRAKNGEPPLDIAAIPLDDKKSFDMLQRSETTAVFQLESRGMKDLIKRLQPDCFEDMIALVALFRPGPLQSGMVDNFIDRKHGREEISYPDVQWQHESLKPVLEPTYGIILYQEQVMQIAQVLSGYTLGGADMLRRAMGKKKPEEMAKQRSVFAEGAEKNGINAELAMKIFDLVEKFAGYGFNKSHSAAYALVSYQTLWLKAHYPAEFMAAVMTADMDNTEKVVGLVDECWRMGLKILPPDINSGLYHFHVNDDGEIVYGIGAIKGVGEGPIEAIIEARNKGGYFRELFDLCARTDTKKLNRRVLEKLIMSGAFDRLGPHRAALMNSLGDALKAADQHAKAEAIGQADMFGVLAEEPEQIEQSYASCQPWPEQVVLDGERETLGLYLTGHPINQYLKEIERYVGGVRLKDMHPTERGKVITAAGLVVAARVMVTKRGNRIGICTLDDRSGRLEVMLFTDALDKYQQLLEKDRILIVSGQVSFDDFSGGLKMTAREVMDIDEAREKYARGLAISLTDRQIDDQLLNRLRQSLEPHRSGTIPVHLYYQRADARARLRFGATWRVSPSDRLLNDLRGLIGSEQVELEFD

Assay [5] concerns H. influenza Hi3 ATCC 31517. Nature of the assay: organism not typed. Format: cell-based. Particulars: read-out: MIC Hi3.
Assay [6] concerns Methicillin Resistant S. aureus (MRSA). Description: Neutropenic mouse thigh infection model. Particulars: Thigh Sa.
Assay [7] deals with H. influenza Hi47 clinical strain, Ampicillin Resistant. Nature of the assay: organism not typed. Format: cell-based. Particulars: read-out: MIC Hi47.
Assay [8] has as its system S. aureus Sa26 ATCC 25923. Description: Antibacterial activity assay (MIC), S. aureus Sa26. Format: cell-based. Particulars: Staphylococcus aureus.
The subject of assay [9] is E. coli Ec50 efflux pump KO. Description: microbe, parasite or virus in culture. Format: cell-based. Conditions: Escherichia coli, read-out: MIC Ec50 efflux pump KO.
A further assay has as its system S. aureus Sa1 ATCC 13709. Description: microbe, parasite or virus in culture. Format: cell-based. Particulars: Staphylococcus aureus.
The test system of assay [10] is S. aureus Sa2 clinical strain NCIMB 41953, MRSA. Description: microbe, parasite or virus in culture. Conditions: Staphylococcus aureus, read-out: MIC Sa2. Format: cell-based.
Another assay concerns S. aureus Sa4 NCTC 6571. Nature of the assay: Antibacterial activity assay (MIC), S. aureus Sa4. Format: cell-based. Conditions: Staphylococcus aureus.
In assay [11] the test system is E. coli Ec113 efflux pump KO. Nature of the assay: microbe, parasite or virus in culture. Format: cell-based. Particulars: Escherichia coli, read-out: MIC Ec113 efflux pump KO.
Assay [12] deals with Methicillin Resistant S. aureus Sa2 (MRSA). Format: in vivo. Particulars: Groin Sa, sample time 31 h post infection.
[13] abbreviates: Staphylococcus aureus, MRSA, in Mus musculus, po, 24 h, read-out: Log reduction vs. untreated, Study 3, 50 mg/kg PO BID, sample 24 h post infection, lung.
The mark [14] stands for this setting: Study 3, 50 mg/kg PO BID, sample 24 h post infection, lung.
The mark [15] stands for this setting: Study 9, 50 mg/kg PO BID, sample time 24 h PI.
Setting [16] is: Study 3, 50 mg/kg SC BID, sample time 7 h PI.
Where [17] appears, read: Study 5, 5 mg/kg IP BID, sample time 24 h PI.
Setting [18] is: Study 5, 15 mg/kg IP BID, sample time 24 h PI.
[19] abbreviates: Study 5, 50 mg/kg IP BID, sample time 24 h PI.
The mark [20] stands for this setting: Study 5, 50 mg/kg SC BID, sample time 24 h PI.
The mark [21] stands for this setting: Study 5, 200 mg/kg PO BID, sample time 24 h PI.
The mark [22] stands for this setting: Study 6, 50 mg/kg PO BID, sample time 24 h PI.
Where [23] appears, read: Study 6, 100 mg/kg PO BID, sample time 24 h PI.
Setting [24] is: Study 1, 50 mg/kg SC BID, sample time 7 h PI.
[25] abbreviates: Study 2, 50 mg/kg SC BID, sample time 7 h PI.
[26] abbreviates: Study 4, 15 mg/kg SC BID, sample time 24 h PI.
Setting [27] is: Study 8, 50 mg/kg SC QD, sample time 48 h PI.

pIC50: −log10 of the molar value. In brackets after ≈: the same amount, converted by molar mass. Where two headings read alike, the source gives them in different places. Where only a bound is given, the exact number is not on record here.

Regarding `COC[C@@H]1[C@@H](O)[C@@H]2[C@H]3C=C[C@@H]4[C@@H](COC)C(=O)O[C@H]([C@H](O)COC)[C@H](C)/C=C(\C)[C@@]24O[C@H]3[C@@H]1OC(=O)c1cc(F)c[nH]1` [Compound 19, 8-O-4-Fluoro-1H-pyrrole-2′-carbonylbranimycin], the MIC in assay [1] was greater than 64 µg/mL; in assay [2] it was greater than 64 µg/mL; in the assay with E. coli Ec1 ATCC 25922 (ATCC25922, E. coli Ec1 ATCC 25922, sensitive strain, read-out: MIC Ec1), greater than 64 µg/mL; in assay [5], greater than 64 µg/mL; in [7], greater than 64 µg/mL; in assay [8] (ATCC25923, read-out: MIC Sa26 + 10% SH, S. aureus Sa26 + 10% SH) it was 0.5 µg/mL. Also, the MIC in [8] (ATCC25923, read-out: MIC Sa26 + 50% SH, S. aureus Sa26 + 50% SH) stood at 1 µg/mL; in assay [8] (ATCC25923, S. aureus Sa26 ATCC 25923, sensitive strain, Mueller-Hinton Broth, 37° C., read-out: MIC Sa26), 0.5 µg/mL (≈ 0.842 µM); in assay [9], 64 µg/mL (≈ 108 µM); in the assay with S. aureus Sa1 ATCC 13709 (ATCC13709, S. aureus Sa1 ATCC 13709, sensitive strain, Mueller-Hinton Broth, 37° C., read-out: MIC Sa1) it was 0.5 µg/mL (≈ 0.842 µM); in assay [10], 0.5 µg/mL (≈ 0.842 µM); in the assay with S. aureus Sa4 NCTC 6571 (NCTC6571, S. aureus Sa4 NCTC 6571, sensitive strain, read-out: MIC Sa4), 0.25 µg/mL (≈ 0.421 µM). For the same molecule, the MIC in [11] is 0.5 µg/mL (≈ 0.842 µM). Also, the log reduction at 50 mg/kg in [3] (setting [13]) was determined as 3.56. In assay [3] (Staphylococcus aureus, MRSA, in Mus musculus, po, 72 h, read-out: Log reduction vs. untreated, Study 6, 25 mg/kg PO QD, sample 72 h post infection, lung), the log reduction at 25 mg/kg is 3.65. Moreover, the Active entry is given as “Y” in assay [3] (setting [14]); “Y” in [3] (Study 6, 25 mg/kg PO QD, sample 72 h post infection, lung); “Y” in assay [6] (setting [15]). Moreover, the negative-log IC50 (pIC50) in [4] is 5.77 to 8.77; on DNA III Polymerase E, 4.77 to 5.77. For the same molecule, in assay [6] (setting [15]), the “Log reduction vs. untreated” value is −3.28.
On to `CO[C@H]1C[C@H]2C=C[C@H]3[C@H]4O[C@]2(/C(C)=C/[C@@H](C)[C@@H]([C@@H](C)O)OC1=O)[C@@H]3[C@H](O)[C@@H](C)[C@H]4OC(=O)c1ccc[nH]1` [Nargenicin A1, reference compound], for which the Active result in assay [12] (Study 1, 50 mg/kg IP BID) is listed as “Y”; in assay [12] (Study 1, 50 mg/kg PO BID) it was “N”; in assay [3] (Study 4, 12.5 mg/kg PO BID, sample 24 h post infection, lung) it was “N”; in [3] (Study 4, 25 mg/kg PO BID, sample 24 h post infection, lung), “Y”; in assay [3] (Study 4, 50 mg/kg PO BID, sample 24 h post infection, lung), “Y”; in [6] (setting [16]), “Y”. The Active entry in assay [6] (setting [17]) is given as “N”; in assay [6] (setting [18]) it was “N”; in assay [6] (setting [19]), “Y”; in [6] (setting [20]), “Y”; in assay [6] (setting [21]), “Y”; in assay [6] (setting [22]), “Y”. Moreover, the Active result in assay [6] (setting [23]) was “Y”. The “Log reduction vs. untreated” value is −3.13 in [12] (Study 1, 50 mg/kg IP BID); −1.11 in [12] (Study 1, 50 mg/kg PO BID); −4.52 in assay [6] (setting [16]); 0.28 in [6] (setting [17]); −0.55 in [6] (setting [18]); −5.40 in assay [6] (setting [19]). The “Log reduction vs. untreated” value is reported as −3.28 in [6] (setting [20]), −4.47 in [6] (setting [21]), −2.02 in assay [6] (setting [22]) and −4.06 in assay [6] (setting [23]). For the same molecule, the MIC in assay [1] was 32 µg/mL (≈ 62.1 µM); in assay [2], 32 µg/mL (≈ 62.1 µM); in the assay with E. coli Ec1 ATCC 25922 (ATCC25922, read-out: MIC Ec1), greater than 64 µg/mL; in assay [5], 64 µg/mL (≈ 124 µM); in [7], 64 µg/mL (≈ 124 µM); in assay [8] (ATCC25923, read-out: MIC Sa26), 0.25 µg/mL (≈ 0.485 µM). For the same molecule, the MIC was 0.5 µg/mL in assay [8] (ATCC25923, read-out: MIC Sa26 + 10% SH); 0.5 µg/mL in assay [8] (ATCC25923, read-out: MIC Sa26 + 50% SH); 2 µg/mL (≈ 3.88 µM) in assay [9]; 0.125 µg/mL (≈ 0.242 µM) with S. aureus Sa1 ATCC 13709 (ATCC13709, read-out: MIC Sa1); 0.125 µg/mL (≈ 0.242 µM) in assay [10]; no more than 0.06 µg/mL in the assay with S. aureus Sa4 NCTC 6571 (NCTC6571, read-out: MIC Sa4). Also, in assay [11], the MIC is no more than 0.06 µg/mL. The log reduction at 12.5 mg/kg in assay [3] (Staphylococcus aureus, MRSA, in Mus musculus, po, 24 h, read-out: Log reduction vs. untreated, Study 4, 12.5 mg/kg PO BID, sample 24 h post infection, lung) is 0.39. For the same molecule, the log reduction at 25 mg/kg in assay [3] (Staphylococcus aureus, MRSA, in Mus musculus, po, 24 h, read-out: Log reduction vs. untreated, Study 4, 25 mg/kg PO BID, sample 24 h post infection, lung) was 2.17. The log reduction at 50 mg/kg in [3] (Staphylococcus aureus, MRSA, in Mus musculus, po, 24 h, read-out: Log reduction vs. untreated, Study 4, 50 mg/kg PO BID, sample 24 h post infection, lung) was 2.57. Also, the pIC50 is 5.71 to 8.71 in [4] and 5.71 to 8.71 at DNA III Polymerase E (DNA polymerase III, E. coli, read-out: IC50 semiquantitative scoring, E. coli).
In the case of `C[C@H]1COc2c(N3CCN(C)CC3)c(F)cc3c(=O)c(C(=O)O)cn1c23` [Levofloxacin, reference compound], the Active result was “N” in assay [12] (Study 2, 50 mg/kg PO BID); “N” in [3] (Study 1, 50 mg/kg PO BID, sample 24 h post infection, lung); “N” in assay [3] (Study 2, 50 mg/kg PO BID, sample 24 h post infection, lung); “N” in [3] (setting [14]). The “Log reduction vs. untreated” value in assay [12] (Study 2, 50 mg/kg PO BID) is given as −1.00. The log reduction at 50 mg/kg in assay [3] (Staphylococcus aureus, MRSA, in Mus musculus, po, 24 h, read-out: Log reduction vs. untreated, Study 1, 50 mg/kg PO BID, sample 24 h post infection, lung) is 0.32; in [3] (Staphylococcus aureus, MRSA, in Mus musculus, po, 24 h, read-out: Log reduction vs. untreated, Study 2, 50 mg/kg PO BID, sample 24 h post infection, lung), 0.55; in assay [3] (setting [13]), -1.17.
For `CN[C@H](CC(C)C)C(=O)N[C@H]1C(=O)N[C@@H](CC(N)=O)C(=O)N[C@H]2C(=O)N[C@H]3C(=O)N[C@H](C(=O)N[C@H](C(=O)O)c4cc(O)cc(O)c4-c4cc3ccc4O)[C@H](O)c3ccc(c(Cl)c3)Oc3cc2cc(c3O[C@@H]2O[C@H](CO)[C@@H](O)[C@H](O)[C@H]2O[C@H]2C[C@](C)(N)[C@H](O)[C@H](C)O2)Oc2ccc(cc2Cl)[C@H]1O` [Vancomycin], the Active entry in assay [12] (Study 1, 50 mg/kg SC BID) is “Y”; in assay [3] (Study 1, 50 mg/kg SC BID, sample 24 h post infection, lung), “Y”; in assay [6] (setting [24]) it was “Y”; in assay [6] (setting [25]) it was “Y”; in [6] (setting [16]), “Y”; in [6] (setting [26]) it was “Y”. In addition, the Active entry in assay [6] (setting [20]) and in assay [6] (setting [27]) was “Y” in each case. Moreover, the “Log reduction vs. untreated” value is on record as −3.59 in assay [12] (Study 1, 50 mg/kg SC BID); −4.01 in assay [6] (setting [24]); −2.57 in assay [6] (setting [25]); −1.52 in assay [6] (setting [16]); −3.96 in assay [6] (setting [26]); −4.27 in assay [6] (setting [20]). The “Log reduction vs. untreated” value in assay [6] (setting [27]) was −3.2. The log reduction at 50 mg/kg in [3] (Staphylococcus aureus, MRSA, in Mus musculus, sc, 24 h, read-out: Log reduction vs. untreated) was 2.
